{"source": "patent US20030211076A1", "about": "“Compositions and methods for treatment of proliferative disorders” (priority 2003, published 2003)", "test_system": "ERK1 and ERK2 MAP kinases", "assay": "FGF2-stimulated MAP kinase phosphorylation, Western blot", "format": "cell-based", "settings": "200 μM genistein", "description": "Since activation of MAP kinases by FGF2 is one of the earliest mitogenic signaling events within cells (Maher), the effects of LO on FGF2-stimulated MAP kinase phosphorylation were tested by Western blot analysis using an antibody specific for phospho-extracellular signal-regulated kinases 1 and 2 (ERK1 and ERK2). The amount of total ERK1 and ERK2 MAP kinases within the same cell extracts was determined by using an antibody that recognizes both the phospho- and non-phospho-forms of ERK1 and ERK2. […] Cell extracts were prepared and equal amounts of proteins (25 μg) were analyzed by 10% SDS-PAGE. Immunoblotting was performed using antibodies specific for the active forms of ERK1 and ERK2 (A) and total ERKs (B)."}
{"molecule": "O=c1c(-c2ccc(O)cc2)coc2cc(O)cc(O)c12", "note": "[genistein, reference compound]", "values": [{"measurement": "MAP kinase activation by FGF2", "result": "inhibited"}]}
